Assay results from ChEMBL document CHEMBL3885881, “DrugMatrix”.

Organism: Rattus norvegicus
Experiment: DrugMatrix - Regimen: Daily Repeat
Assay type: toxicity, organism-based, Sprague-Dawley
Set-up: regimen Daily Repeat, gender Male, age 6-8 weeks
Conditions: in vivo, po, route oral GAVAGE, vehicle 100 % WATER; for ABSOLUTE BASOPHIL / ABSOLUTE EOSINOPHIL / ABSOLUTE LYMPHOCYTE / ABSOLUTE MONOCYTE / ABSOLUTE SEGMENTED NEUTROPHIL / BASOPHIL / EOSINOPHIL / ERYTHROCYTE COUNT / HEMATOCRIT / HEMOGLOBIN / LEUKOCYTE COUNT / LYMPHOCYTE / MEAN CORPUSCULAR HEMOGLOBIN / MEAN CORPUSCULAR HEMOGLOBIN CONCENTRATION / MONOCYTE / NEUTROPHIL / NUCLEATED RED BLOOD CELLS / PLATELET COUNT: tissue Blood; for ALANINE AMINOTRANSFERASE / ALBUMIN / ALKALINE PHOSPHATASE / ASPARTATE AMINOTRANSFERASE / BLOOD UREA NITROGEN / CARBON DIOXIDE / CHLORIDE / CHOLESTEROL / CREATINE PHOSPHOKINASE / CREATININE / GLUCOSE / LACTATE DEHYDROGENASE / LIPASE / PHOSPHORUS / POTASSIUM / SODIUM / TOTAL BILIRUBIN / TOTAL PROTEIN / URIC ACID: tissue Plasma
[1] = 0 mg/kg, 72 h, dose level Control, time 3 day
[2] = 0 mg/kg, 120 h, dose level Control, time 5 day
[3] = 50 mg/kg, 72 h, dose level Low, time 3 day

## C[C@H](CS)C(=O)N1CCC[C@H]1C(=O)O [CAPTOPRIL]
[1]
  ABSOLUTE BASOPHIL: 0 CELLS/uL
  ABSOLUTE EOSINOPHIL: 0 CELLS/uL
  ABSOLUTE LYMPHOCYTE: 10386.33 CELLS/uL
  ABSOLUTE MONOCYTE: 88.5 CELLS/uL
  ABSOLUTE SEGMENTED NEUTROPHIL: 1008.5 CELLS/uL
  BASOPHIL: 0%
  EOSINOPHIL: 0%
  ERYTHROCYTE COUNT: 5.16 x10E6/uL
  HEMATOCRIT: 32.43%
  HEMOGLOBIN: 12.98 G/DL
  LEUKOCYTE COUNT: 11.48 x10E3/uL
  LYMPHOCYTE: 92.33%
  MEAN CORPUSCULAR HEMOGLOBIN: 25.23 pg
  MEAN CORPUSCULAR HEMOGLOBIN CONCENTRATION: 40.08 G/DL
  MONOCYTE: 0.67%
  NEUTROPHIL: 7%
  NUCLEATED RED BLOOD CELLS: 0 /100WBC
  PLATELET COUNT: 1016.67 x10E3/uL
  ALANINE AMINOTRANSFERASE: 62.17 u/L
  ALBUMIN: 3.95 G/DL
  ALKALINE PHOSPHATASE: 363.5 u/L
  ASPARTATE AMINOTRANSFERASE: 118 u/L
  BLOOD UREA NITROGEN: 14.5 mg/dL
  CARBON DIOXIDE: 22.83 mmol/L
  CHLORIDE: 100.67 MEQ/L
  CHOLESTEROL: 66 mg/dL
  CREATINE PHOSPHOKINASE: 1308.83 u/L
  CREATININE: 0.22 mg/dL
  GLUCOSE: 187.5 mg/dL
  LACTATE DEHYDROGENASE: 380.17 u/L
  LIPASE: 16.17 u/L
  PHOSPHORUS: 14.27 mg/dL
  POTASSIUM: 6.8 MEQ/L
  SODIUM: 142.53 MEQ/L
  TOTAL BILIRUBIN: 0.2 mg/dL
  TOTAL PROTEIN: 5.68 G/DL
  URIC ACID: 2.87 mg/dL
[2]
  ABSOLUTE BASOPHIL: 0 CELLS/uL
  ABSOLUTE EOSINOPHIL: 80 CELLS/uL
  ABSOLUTE LYMPHOCYTE: 13301.33 CELLS/uL
  ABSOLUTE MONOCYTE: 180.83 CELLS/uL
  ABSOLUTE SEGMENTED NEUTROPHIL: 1187.83 CELLS/uL
  BASOPHIL: 0%
  EOSINOPHIL: 0.5%
  ERYTHROCYTE COUNT: 5.54 x10E6/uL
  HEMATOCRIT: 35.65%
  HEMOGLOBIN: 14.22 G/DL
  LEUKOCYTE COUNT: 14.75 x10E3/uL
  LYMPHOCYTE: 90.67%
  MEAN CORPUSCULAR HEMOGLOBIN: 25.65 pg
  MEAN CORPUSCULAR HEMOGLOBIN CONCENTRATION: 39.88 G/DL
  MONOCYTE: 1%
  NEUTROPHIL: 7.83%
  NUCLEATED RED BLOOD CELLS: 0.17 /100WBC
  PLATELET COUNT: 1285.33 x10E3/uL
  ALANINE AMINOTRANSFERASE: 51.67 u/L
  ALBUMIN: 4.08 G/DL
  ALKALINE PHOSPHATASE: 391.5 u/L
  ASPARTATE AMINOTRANSFERASE: 99.5 u/L
  BLOOD UREA NITROGEN: 15.5 mg/dL
  CARBON DIOXIDE: 28.33 mmol/L
  CHLORIDE: 101.83 MEQ/L
  CHOLESTEROL: 67.83 mg/dL
  CREATINE PHOSPHOKINASE: 771.33 u/L
  CREATININE: 0.23 mg/dL
  GLUCOSE: 156.5 mg/dL
  LACTATE DEHYDROGENASE: 544.33 u/L
  LIPASE: 10.17 u/L
  PHOSPHORUS: 12.03 mg/dL
  POTASSIUM: 6.81 MEQ/L
  SODIUM: 144.13 MEQ/L
  TOTAL BILIRUBIN: 0.22 mg/dL
  TOTAL PROTEIN: 6 G/DL
  URIC ACID: 2.18 mg/dL
[3]
  ABSOLUTE BASOPHIL: 0 CELLS/uL
  ABSOLUTE EOSINOPHIL: 0 CELLS/uL
  ABSOLUTE LYMPHOCYTE: 12527.33 CELLS/uL
  ABSOLUTE MONOCYTE: 193.67 CELLS/uL
  ABSOLUTE SEGMENTED NEUTROPHIL: 645.67 CELLS/uL
  BASOPHIL: 0%
  EOSINOPHIL: 0%
  ERYTHROCYTE COUNT: 5.11 x10E6/uL
  HEMATOCRIT: 32.47%
  HEMOGLOBIN: 12.77 G/DL
  LEUKOCYTE COUNT: 13.37 x10E3/uL
  LYMPHOCYTE: 93.67%
  MEAN CORPUSCULAR HEMOGLOBIN: 25 pg
  MEAN CORPUSCULAR HEMOGLOBIN CONCENTRATION: 39.33 G/DL
  MONOCYTE: 1.33%
  NEUTROPHIL: 5%
  NUCLEATED RED BLOOD CELLS: 0 /100WBC
  PLATELET COUNT: 1185.33 x10E3/uL
  ALANINE AMINOTRANSFERASE: 55.33 u/L
  ALBUMIN: 4.23 G/DL
  ALKALINE PHOSPHATASE: 396.33 u/L
  ASPARTATE AMINOTRANSFERASE: 89.33 u/L
  BLOOD UREA NITROGEN: 15.33 mg/dL
  CARBON DIOXIDE: 24.67 mmol/L
  CHLORIDE: 99.67 MEQ/L
  CHOLESTEROL: 77.67 mg/dL
  CREATINE PHOSPHOKINASE: 344.67 u/L
  CREATININE: 0.22 mg/dL
  GLUCOSE: 154.67 mg/dL
  LACTATE DEHYDROGENASE: 230.67 u/L
  LIPASE: 11.67 u/L
  PHOSPHORUS: 12.57 mg/dL
  POTASSIUM: 6.98 MEQ/L
  SODIUM: 141.83 MEQ/L
  TOTAL BILIRUBIN: 0.2 mg/dL
  TOTAL PROTEIN: 5.87 G/DL
